Results taken from patent US20240189268A1, “SESQUITERPENE DERIVATIVE OR PHARMACEUTICALLY ACCEPTABLE SALT THEREOF AND USE THEREOF” (MFC CO., LTD., priority 2021, published 2024).
“Also recorded” adds a separate entry of the source.

Legend:
promoter of MSTN = test: pMSTN_luc luciferase assay (MSTN promoter activity); assay type: cell-based; settings: for MSTN promoter activity (luciferase) after Doxorubicin: pretreated 3 hours (1-1: 1, 3, 10 μM; 1-2: 1, 3, 10, 30 μM), vs Doxorubicin alone
Description: After 12 hours of transfection with 1 μg of a pMSTN_luc vector (myostatin; new plasmid vector generated by inserting a promoter region of a MSTN gene into a plasmid vector (pGL4.15 vector) capable of luciferase experiment), Compound 1-1 (MFC-1) was pretreated (1, 3, and 10 μM) for 3 hours, respectively. Thereafter, luciferase activity was measured by harvesting after treatment with 0.5 μg/ml of an anticancer agent Doxorubicin for 6 hours. The results were illustrated in FIG. 1B.
(Meanwhile, the luciferase assay used in FIG. 1B was an assay of transfecting a luciferase vector into a cell, treating a drug, and then treating luciferin to measure the amount of light emitted by the activation of the promoter of the gene by the drug. This means that it is possible to determine whether the promoter was activated and that the gene may be regulated at the transcriptional level by the drug touching the promoter region.)
After 12 hours of transfection with 1 μg of the pMSTN_luc vector, Compound 1-2 (MFC-2) was pretreated (1, 3, 10, and 30 μM) for 3 hours, respectively. Thereafter, the luciferase activity was measured by harvesting after treatment with Doxorubicin 0.5 μg/ml for 6 hours. The results were illustrated in FIG. 1C.
Cedrol (Reference) and Compound 1-2 (MFC-2) were each treated (3 μM), respectively, and harvested 12 hours later to measure luciferase activity (FIG. 3J).

NF-κB promoter = test: pNF-κB luciferase assay (NF-κB promoter activity); assay type: cell-based
Description: NF-κB was a transcription factor binding to a promoter region of a myostatin gene, a muscle mass regulation target protein, and to determine whether NF-κB was involved in the regulation of myostatin expression of Compound MFC-2, after 12 hours of transfection with 1 μg of the pNF-κB vector, Compound 1-2 (MFC-2) was treated (3 μM) for 12 hours. Thereafter, the luciferase activity was measured by harvesting (FIG. 3H). For reference, pGL3 and pGL4.15 shown in FIG. 3 were a type of luciferase plasmid vector, and the vector itself without the gene inserted was used as Control (control group). The vector in which the promoter region of the NF-κB gene was inserted into the luciferase vector was expressed as pNF-κB.
After 12 hours of transfection with 1 μg of the pNF-κB vector, Compound 1-2 (MFC-2) was pretreated (3 μM) for 3 hours. Thereafter, 0.5 μg/ml of Doxorubicin was treated for 6 hours, harvested, and luciferase activity was measured (FIG. 3I).

[1] = Animal blood analysis of aging mice (CK, LDH, AST, TG); assay type: in vivo
Description: For the Control group, Reference group, and MFC-2 group, an animal blood analysis experiment was conducted on aging mice. As a result, it was confirmed that the serum CK level of creatine kinase (CK), which was an enzyme contained in skeletal muscle, myocardium, smooth muscle, etc. to be released into the blood when the muscle was damaged, decreased in the MFC-2 group compared to other groups (FIG. 5A).

Myostatin = test: qRT-PCR of EDL muscle tissue of aging mice: myostatin; assay type: in vivo; settings: vs Control group, listed as MFC-2
Text: (§1) MuRF1 (muscle RING-finger protein 1) was a muscle-specific E3 ubiquitin ligase and a type of atrogene causing sarcopenia, and it was confirmed that the expression of Myostatin and MuRF1 was reduced in the EDL muscle tissue of the group fed with Compound MFC-2.

aging mice [2] = test: Grip strength of aging mice; assay type: in vivo; settings: for grip strength (muscle strength of forelimbs and hindlimbs): 24 to 25-month-old mice, once a week for 16 weeks, vs Control group
Description: In addition, the muscle strengths of the forelimbs and hindlimbs of 24 to 25-month-old mice were evaluated for the three groups using a grip strength measuring machine, and the evaluation was conducted once a week for 16 weeks.

MuRF1 = test: qRT-PCR of EDL muscle tissue of aging mice: MuRF1; assay type: in vivo
Text: as §1

aging mice [3] = test: Muscle size (GC, TA, EDL) of aging mice fed compound; assay type: in vivo; settings: 21-month-old aging mice, in feed for 3 months; vs Control group
Description: 21-month-old aging mice were fed with regular feed (Control), feed containing Cedrol (Reference), and feed containing Compound 1-2 (MFC-2) for 3 months for each group, and thereafter, an animal experiment was conducted to compare the sizes of the Gastrocnemius muscle (GC), Tibialis anterior (TA), and Extensor digitorum longus (EDL) muscles separated from the hind limbs of aging mice.

[4] = then Doxorubicin 0.5 μg/ml 6 hours
[5] = Doxorubicin 0.5 μg/ml for 6 hours, alone
[6] = aging mice blood, compared to other groups

In the case of COc1cc(C(=O)O[C@]2(C)CC[C@@]34C[C@@H]2C(C)(C)[C@@H]3CC[C@H]4C)ccc1O [Compound 1-1, (3R,3aS,6R,7R,8aS)-3,6,8,8-tetramethyloctahydro-1H-3a,7-metanoazulen-6-yl-4-hydroxy-3-methoxybenzoate], the “MSTN promoter activity (luciferase) after Doxorubicin” value (promoter of MSTN; [4]) is reported as “lower expression level than a group treated with Doxorubicin alone”.
In the case of COc1cccc2c1C(=O)c1c(O)c3c(c(O)c1C2=O)C[C@@](O)(C(=O)CO)C[C@@H]3O[C@H]1C[C@H](N)[C@H](O)[C@H](C)O1 [Doxorubicin, reference compound], the “NF-κB promoter activity (luciferase)” value (NF-κB promoter; [5]) is reported as “increased” and the “MSTN promoter activity (luciferase)” value (promoter of MSTN; [5]) is reported as “rapidly increased”.
For COc1cc(C(=O)O[C@]2(C)CC[C@@]34C[C@@H]2C(C)(C)[C@@H]3CC[C@H]4C)ccc1OC(C)=O [Compound 1-2, (3R,3aS,6R,7R,8aS)-3,6,8,8-tetramethyloctahydro-1H-3a,7-methanoazulen-6-yl-4-acetoxy-3-methoxybenzoate], the LDH level ([1]; aging mice blood, compared to Control group) was “decrease in LDH level”, the AST level [1, 6] was “decrease in the levels thereof” and the TG level [1, 6] was “decrease in the levels thereof”. The “serum CK level” value ([1]; aging mice, compared to other groups) was “decreased”, the “myostatin mRNA expression in EDL muscle tissue” value (Myostatin) was “significantly decreased compared to the Control group; also recorded: reduced” and the “NF-κB promoter activity (luciferase)” value (NF-κB promoter; 3 μM for 12 hours, no Doxorubicin) was “reduces NF-κB promoter activity”. The “NF-κB promoter activity (luciferase) after Doxorubicin” value (NF-κB promoter; pretreated 3 μM 3 hours, then Doxorubicin 0.5 μg/ml 6 hours, vs Doxorubicin alone) was “lower expression level than the group treated with Doxorubicin alone”, the “grip strength (muscle strength of forelimbs and hindlimbs)” value (aging mice [2]; listed as MFC-2) was “gradually increased compared to the Control group” and the “grip strength compared to Reference group (Cedrol)” value (aging mice [2]; aging mice, from week 15) was “increased compared to the Reference group from week 15 later”. The “MuRF1 mRNA expression in EDL muscle tissue” value (MuRF1) was “reduced”, the “muscle size (GC, TA, EDL)” value (aging mice [3]) was “increase in muscle size” and the pMSTN-luciferase activity (promoter of MSTN; 3 μM, harvested 12 hours later, compared with Cedrol) was “reduced pMSTN-luciferase activity more effectively than existing Cedrol (Reference)”. For the same molecule, the “MSTN promoter activity (luciferase) after Doxorubicin” value (promoter of MSTN; [4]) was “lower expression level than the group treated with Doxorubicin alone” and the “inhibitory effect on MSTN promoter activity compared with Compound 1-1” value (promoter of MSTN; pretreatment, then Doxorubicin 0.5 μg/ml 6 hours) was “greater inhibitory effect than Compound 1-1 (MFC-1)”.
For C[C@@H]1CC[C@H]2C(C)(C)[C@H]3C[C@@]12CC[C@@]3(C)O [Cedrol, reference compound], the “grip strength (muscle strength of forelimbs and hindlimbs)” value (aging mice [2]) was “gradually increased compared to the Control group”.
